Assay results from patent US11492348B2, “Tri-substituted aryl and heteroaryl derivatives as modulators of PI3-kinase and autophagy pathways” (Neuropore Therapies, Inc., priority 2018, dated 2022).
Where a name gives a salt, the structure may show the parent alone.

Experiments:
mTor kinase = mTor kinase (Homo sapiens (Human), UniProt P42345); test: mTor assay (33P-ATP filter-binding kinase assay); assay type: biochemical; conditions: 2 hours at room temperature
Description: The substrate was prepared in base reaction buffer (20 mM Hepes (pH 7.5), 10 mM MgCl2, 1 mM EGTA, 0.02% Brij35, 0.02 mg/ml BSA, 0.1 mM Na3VO4, 2 mM DTT, 1% DMSO), and required cofactors were added to the substrate solution. The mTor kinase was delivered into the substrate solution, and the solution was gently mixed. Testing compounds were dissolved in 100% DMSO to specific concentration. The serial dilution was conducted by Integra Viaflo Assist in DMSO. The compounds were delivered into the kinase reaction mixture by Acoustic technology (Echo550; nanoliter range), and the reaction mixture was incubated for 20 min at room temperature. Then, 33P-ATP (Specific activity 10 μCi/μl) was delivered into the reaction mixture to initiate the reaction. The reaction mixture was incubated for 2 hours at room temperature. Radioactivity was detected by a filter-binding method. Kinase activity data were expressed as the percent remaining kinase activity in test samples compared to vehicle (dimethyl sulfoxide) reactions. IC50 values and curve fits were obtained using Prism (GraphPad Software).

PI3Kα = PI3Kα (Homo sapiens (Human), UniProt P42336); test: Inhibition of PI3Kα (ADP-Glo kinase activity assay, ATP to ADP conversion); assay type: biochemical; conditions: 25 μM PIP2:PS, 60 μM ATP, 30 min reaction, luminescence
Summary of the method: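 Recombinant active PI3Kα (1.1 nM) in HEPES pH 7.5 buffer with 6 mM MgCl2 and 8 mM DTT was preincubated with compound for 0 or 3 h. The reaction ran for 30 min with 25 µM PIP2:PS and 60 µM ATP, and ADP formation was read by ADP-Glo luminescence. IC50 came from a 12-point, 1:3 series fitted with a 4-parameter model, bottom fixed to reference inhibitor controls and top floating.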

[1] = test system: (Ser-473) pAKT in B103 (Rat Neuroblastoma) cells; test: pAKT protocol: loss of (Ser-473) pAKT by AlphaScreen in insulin-stimulated B103 cells; assay type: cell-based; conditions: (Ser-473) pAKT/total AKT IC50, 2-hour pretreatment, 2.5 μg/mL insulin 20 minutes
Summary of the method: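 Rat neuroblastoma B103 cells, serum-starved 6 h, were pretreated 2 h with inhibitors (6-point 1:3 series, 0.5% DMSO) before insulin stimulation. Lysate Ser-473 pAKT and total AKT measured by AlphaScreen; pAKT/total AKT ratio fitted to 4-parameter curve, bottom constrained to reference control, top anchored to DMSO.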

Sequence of PI3Kα (P42336 whole entry): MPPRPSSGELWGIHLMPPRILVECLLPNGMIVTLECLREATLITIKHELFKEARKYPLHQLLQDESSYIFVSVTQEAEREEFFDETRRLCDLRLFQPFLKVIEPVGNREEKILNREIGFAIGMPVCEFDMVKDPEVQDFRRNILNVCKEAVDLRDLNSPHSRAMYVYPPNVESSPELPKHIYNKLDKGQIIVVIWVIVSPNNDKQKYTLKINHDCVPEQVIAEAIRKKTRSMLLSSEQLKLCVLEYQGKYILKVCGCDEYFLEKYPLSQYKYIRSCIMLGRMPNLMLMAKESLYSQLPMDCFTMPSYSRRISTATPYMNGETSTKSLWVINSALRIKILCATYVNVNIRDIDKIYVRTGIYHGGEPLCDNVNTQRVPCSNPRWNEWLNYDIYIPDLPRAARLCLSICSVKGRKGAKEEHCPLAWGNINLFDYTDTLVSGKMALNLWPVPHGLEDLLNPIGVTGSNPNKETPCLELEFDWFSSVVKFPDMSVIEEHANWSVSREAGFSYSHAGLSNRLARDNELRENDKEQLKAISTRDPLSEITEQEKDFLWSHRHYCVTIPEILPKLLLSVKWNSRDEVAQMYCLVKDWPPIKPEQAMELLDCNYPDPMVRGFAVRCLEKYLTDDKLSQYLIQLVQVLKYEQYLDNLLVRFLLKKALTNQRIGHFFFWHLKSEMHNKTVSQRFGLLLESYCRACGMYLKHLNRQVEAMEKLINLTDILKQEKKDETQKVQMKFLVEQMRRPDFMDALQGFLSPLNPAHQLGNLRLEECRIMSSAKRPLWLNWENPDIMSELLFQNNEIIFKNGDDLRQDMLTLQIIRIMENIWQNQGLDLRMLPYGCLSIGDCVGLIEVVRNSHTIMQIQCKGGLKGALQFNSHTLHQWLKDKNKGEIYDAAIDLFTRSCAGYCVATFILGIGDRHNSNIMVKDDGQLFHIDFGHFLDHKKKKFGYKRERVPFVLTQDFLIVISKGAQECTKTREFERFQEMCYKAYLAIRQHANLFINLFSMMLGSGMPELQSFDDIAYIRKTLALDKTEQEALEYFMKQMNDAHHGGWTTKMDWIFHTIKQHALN
Sequence of PI3Kα (P27986 whole entry partner): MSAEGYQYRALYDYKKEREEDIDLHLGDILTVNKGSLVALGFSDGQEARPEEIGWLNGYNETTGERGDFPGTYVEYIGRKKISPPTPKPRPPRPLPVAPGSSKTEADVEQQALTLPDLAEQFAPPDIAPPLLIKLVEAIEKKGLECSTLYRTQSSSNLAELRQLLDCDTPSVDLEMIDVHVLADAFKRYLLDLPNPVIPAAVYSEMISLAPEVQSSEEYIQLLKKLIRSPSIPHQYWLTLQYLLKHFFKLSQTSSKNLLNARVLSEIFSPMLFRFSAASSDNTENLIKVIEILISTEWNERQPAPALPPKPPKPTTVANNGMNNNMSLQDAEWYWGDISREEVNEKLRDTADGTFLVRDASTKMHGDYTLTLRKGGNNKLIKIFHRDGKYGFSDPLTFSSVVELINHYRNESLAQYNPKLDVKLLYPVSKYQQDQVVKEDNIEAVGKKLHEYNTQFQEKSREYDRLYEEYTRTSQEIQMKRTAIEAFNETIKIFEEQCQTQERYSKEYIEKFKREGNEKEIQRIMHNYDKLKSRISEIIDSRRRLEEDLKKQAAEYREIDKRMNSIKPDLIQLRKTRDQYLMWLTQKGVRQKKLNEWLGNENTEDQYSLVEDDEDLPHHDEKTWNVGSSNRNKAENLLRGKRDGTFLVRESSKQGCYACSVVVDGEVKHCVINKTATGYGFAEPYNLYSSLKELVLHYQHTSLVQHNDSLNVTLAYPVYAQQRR

| Structure (SMILES) | IC50 (mTor kinase) [µM] | PI3Ka IC50 (PI3Kα) [µM] | IC50 [1] [µM] |
| --- | --- | --- | --- |
| N#Cc1ccc(S(=O)(=O)c2cc(-c3cnc(N)cc3C(F)(F)F)cc(N3CCOCC3)c2)cc1 [Compound 18, 4-((3-(6-amino-4-(trifluoromethyl)pyridin-3-yl)-5-morpholinophenyl)sulfonyl)benzonitrile] | 100 | 3.9 | 100 |
| Cc1ccc(S(=O)(=O)c2cc(-c3cnc(N)nc3)cc(N3CCOCC3)c2)cc1 [Compound 21, 5-(3-morpholino-5-tosylphenyl)pyrimidin-2-amine] | 9.39 | 2.1 | 37 |
| CC(=O)Nc1ccc(S(=O)(=O)c2cc(-c3cnc(N)nc3)cc(N3CCOCC3)c2)cc1 [Compound 22, N-(4-((3-(2-aminopyrimidin-5-yl)-5-morpholinophenyl)sulfonyl)phenyl)acetamide] | 8.69 | 2.8 | 39 |
| Nc1ncc(-c2cc(N3CCOCC3)cc(S(=O)(=O)Cc3c[nH]cn3)c2)cn1 [59 (as a TFA salt), 5-(3-(((1H-imidazol-4-yl)methyl)sulfonyl)-5-morpholinophenyl)pyrimidin-2-amine] | 4.6 | 0.46 | 36.1 |
| O=S(=O)(c1ccccc1)c1cc(-c2cnc(NC3CC3)nc2)cc(N2CCOCC2)c1 [Compound 20, N-cyclopropyl-5-(3-morpholino-5-(phenylsulfonyl)phenyl)pyrimidin-2-amine] | 10 | 2.7 | 100 |
| N#Cc1cccc(CS(=O)(=O)c2cc(-c3cnc(N)nc3)cc(N3CCOCC3)c2)c1 [Compound 27, 3-(((3-(2-aminopyrimidin-5-yl)-5-morpholinophenyl)sulfonyl)methyl) benzonitrile] | 11 | 0.38 | 14 |
| Nc1ncc(-c2cc(N3CCOCC3)cc(S(=O)(=O)c3ccc(F)c(Cl)c3)c2)cn1 [Compound 11, 5-(3-((3-chloro-4-fluorophenyl)sulfonyl)-5-morpholinophenyl)pyrimidin-2-amine] | 22 | 1.40 | 100 |
| N#Cc1ccc(S(=O)(=O)c2cc(-c3cnc(N)nc3)cc(N3CCOCC3)c2)cc1 [Compound 10, 4-((3-(2-aminopyrimidin-5-yl)-5-morpholinophenyl)sulfonyl)benzonitrile] | 0.64 | 0.46 | 30.7 |
| N#Cc1ccc(S(=O)(=O)c2cc(-c3cnc(N)nc3C(F)(F)F)cc(N3CCOCC3)c2)cc1 [Compound 17, 4-((3-(2-amino-4-(trifluoromethyl)pyrimidin-5-yl)-5-morpholinophenyl)sulfonyl)benzonitrile] | 100 | 1.9 | 100 |

Now from value to compound:

| IC50 (mTor kinase) [µM] | PI3Ka IC50 (PI3Kα) [µM] | IC50 [1] [µM] | Structure (SMILES) |
| --- | --- | --- | --- |
| > 33 | 0.45 | 6.3 | Nc1cc(C(F)(F)F)c(-c2cc(N3CCOCC3)cc(S(=O)(=O)Cc3ccccc3)c2)cn1 [Compound 32, 5-(3-(benzylsulfonyl)-5-morpholinophenyl)-4-(trifluoromethyl)pyridin-2-amine] |
| 0.73 | 0.13 | 3.46 | Nc1ncc(-c2cc(N3CCOCC3)cc(S(=O)(=O)[C@@H]3CCOC3)c2)cn1 [Compound 52, (R)-5-(3-morpholino-5-((tetrahydrofuran-3-yl)sulfonyl)phenyl)pyrimidin-2-amine] |
| 4.27 | 0.53 | 0.86 | O=S(=O)(Cc1ccc(F)cc1)c1cc(-c2cccc(O)c2)cc(N2CCOCC2)c1 [Compound 41, 3′-((4-fluorobenzyl)sulfonyl)-5′-morpholino-[1,1′-biphenyl]-3-ol] |
| 4.7 | 0.11 | 4 | Nc1ncc(-c2cc(N3CCOCC3)cc(S(=O)(=O)C3COc4ccccc43)c2)cn1 (stereo not drawn) [Compound 119, 5-(3-((2,3-dihydrobenzofuran-3-yl)sulfonyl)-5-morpholinophenyl)pyrimidin-2-amine] |
| 0.87 | 0.088 | 5.44 | CCNC(=O)N1CC(S(=O)(=O)c2cc(-c3cnc(N)nc3)cc(N3CCOCC3)c2)C1 [Compound 93, 3-((3-(2-aminopyrimidin-5-yl)-5-morpholinophenyl)sulfonyl)-N-ethylazetidine-1-carboxamide] |
| 0.54 | 0.11 | 1.65 | Nc1ncc(-c2cc(N3CCOCC3)cc(S(=O)(=O)[C@H]3CCOC3)c2)cn1 [Compound 53, (S)-5-(3-morpholino-5-((tetrahydrofuran-3-yl)sulfonyl)phenyl)pyrimidin-2-amine] |
| 1.75 | 0.023 | 0.75 | Nc1ncc(-c2cc(OC3CCOC3)cc(N3CCOCC3)n2)cn1 (stereo not drawn) [Compound 130, 5-(6-morpholino-4-((tetrahydrofuran-3-yl)oxy)pyridin-2-yl)pyrimidin-2-amine] |
| 10.9 | 3.1 | 18 | CC(=O)Nc1ncc(-c2cc(N3CCOCC3)cc(S(=O)(=O)c3ccccc3)c2)cn1 [Compound 30, N-(5-(3-morpholino-5-(phenylsulfonyl)phenyl)pyrimidin-2-yl)acetamide] |
| 2.46 | 0.53 | 6.54 | Nc1ncc(-c2cc(N3CCOCC3)cc(S(=O)(=O)C3CCC(F)(F)CC3)c2)cn1 [Compound 88, 5-(3-((4,4-difluorocyclohexyl)sulfonyl)-5-morpholinophenyl)pyrimidin-2-amine] |
